# Measurements taken from patent US20240261224A1, “FORMULATION OF A PAN-JAK INHIBITOR” (KINASET THERAPEUTICS, INC., priority 2022, published 2024).
# Where two headings read alike, the source gives them in different places.
# Test: Phase 1 Part 2 plasma pharmacokinetics (mild asthma)
# Assay type: in vivo, human
# Conditions: for AUC0-12h / AUC(0-t) / AUC(0-inf) / AUC / Cmax: human, plasma, inhaled
# Excerpt: Day 10 pharmacokinetic parameters for Parts 2 and 3 of Phase I are summarized below in Table 28. Part 2 involved the administration of 4 different dose regimens, to subjects with mild asthma naïve to ICS therapy, over a 10-day period. Each separate cohort comprised 6 subjects receiving active treatment with 2 receiving matching placebo. Blood samples were collected to enable the measurement of Compound I concentrations in plasma. The resultant data was used to determine the PK parameters at Day 10 representing the Day on which the final dose was received.
smiles,measurement,setting,value
"Cn1c(=O)n([C@H]2CCCN(C(=O)CC#N)C2)c2nc(-c3cnn4ccccc34)ccc21 [Compound I, (S)-3-(3-(1-methyl-2-oxo-5-(pyrazolo[1,5-a]pyridine-3-yl)-1H-imidazo[4,5-b]pyridine-3(2H)-yl)piperidin-1-yl)-3-oxopropanenitrile]",Cmax Min,"4 mg BID, Day 10","7,750 pg/ml"
same,Ctrough Geometric mean,"4 mg BID, Day 10","6,983 pg/ml"
same,Ctrough Max,"4 mg BID, Day 10","15,600 pg/ml"
same,Ctrough Mean,"4 mg BID, Day 10","10,001 pg/ml"
same,Ctrough Min,"4 mg BID, Day 10",563 pg/mL
same,AUC0-12 hours Max,"8 mg BID, Day 10","830,085 pg · h/ml"
same,AUC0-12 hours Min,"8 mg BID, Day 10","260,305 pg · h/ml"
same,AUC0-24 hours Max,"8 mg BID, Day 10","1,140,247 pg · h/ml"
same,AUC0-24 hours Min,"8 mg BID, Day 10","309,050 pg · h/ml"
same,AUC0-last non-zero Max,"8 mg BID, Day 10","1,369,314 pg · h/ml"
same,AUC0-last non-zero Min,"8 mg BID, Day 10","358,137 pg · h/ml"
same,AUC0-∞ Max,"8 mg BID, Day 10","1,369,630 pg · h/ml"
same,AUC0-∞ Min,"8 mg BID, Day 10","358,998 pg · h/ml"
same,AUCover dosing interval Max,"8 mg BID, Day 10","830,085 pg · h/ml"
same,AUCover dosing interval Min,"8 mg BID, Day 10","260,305 pg · h/ml"
same,Cmax Max,"8 mg BID, Day 10","91,500 pg/ml"
same,Cmax Min,"8 mg BID, Day 10","45,400 pg/ml"
same,Ctrough Geometric mean,"8 mg BID, Day 10","17,666 pg/ml"
same,Ctrough Max,"8 mg BID, Day 10","40,600 pg/ml"
same,Ctrough Mean,"8 mg BID, Day 10","21,835 pg/ml"
same,Ctrough Min,"8 mg BID, Day 10","6,090 pg/ml"
same,AUC0-12h,"0.6 mg, 0.6 mg QD, Day 10, read-out: AUC0-12 hours Geometric mean",14.9 ng·h/mL
same,AUC0-12h,"0.6 mg, 0.6 mg QD, Day 10, read-out: AUC0-12 hours Mean",16.1 ng·h/mL
same,AUC(0-t),"0.6 mg, 0.6 mg QD, Day 10, read-out: AUC0-24 hours Geometric mean",20.3 ng·h/mL
same,AUC(0-t),"0.6 mg, 0.6 mg QD, Day 10, read-out: AUC0-24 hours Mean",22.5 ng·h/mL
same,AUC(0-t),"0.6 mg, 0.6 mg QD, Day 10, read-out: AUC0-last non-zero Geometric mean",23.4 ng·h/mL
same,AUC(0-t),"0.6 mg, 0.6 mg QD, Day 10, read-out: AUC0-last non-zero Mean",26.7 ng·h/mL
same,AUC(0-inf),"0.6 mg, 0.6 mg QD, Day 10, read-out: AUC0-∞ Geometric mean",24.3 ng·h/mL
same,AUC(0-inf),"0.6 mg, 0.6 mg QD, Day 10, read-out: AUC0-∞ Mean",28 ng·h/mL
same,AUC,"0.6 mg, 0.6 mg QD, Day 10, read-out: AUCover dosing interval Geometric mean",20.3 ng·h/mL
same,AUC,"0.6 mg, 0.6 mg QD, Day 10, read-out: AUCover dosing interval Mean",22.5 ng·h/mL
same,Cmax,"0.6 mg, 0.6 mg QD, Day 10, read-out: Cmax Geometric mean",1.86 ng/mL
same,Cmax,"0.6 mg, 0.6 mg QD, Day 10, read-out: Cmax Mean",1.97 ng/mL
same,AUC0-12h,"2 mg, 2 mg QD, Day 10, read-out: AUC0-12 hours Geometric mean",51.9 ng·h/mL
same,AUC0-12h,"2 mg, 2 mg QD, Day 10, read-out: AUC0-12 hours Mean",55.2 ng·h/mL
same,AUC(0-t),"2 mg, 2 mg QD, Day 10, read-out: AUC0-24 hours Geometric mean",71.9 ng·h/mL
same,AUC(0-t),"2 mg, 2 mg QD, Day 10, read-out: AUC0-24 hours Mean",76.4 ng·h/mL
same,AUC(0-t),"2 mg, 2 mg QD, Day 10, read-out: AUC0-last non-zero Geometric mean",82.2 ng·h/mL
same,AUC(0-t),"2 mg, 2 mg QD, Day 10, read-out: AUC0-last non-zero Mean",87.4 ng·h/mL
same,AUC(0-inf),"2 mg, 2 mg QD, Day 10, read-out: AUC0-∞ Geometric mean",83.9 ng·h/mL
same,AUC(0-inf),"2 mg, 2 mg QD, Day 10, read-out: AUC0-∞ Mean",89.2 ng·h/mL
same,AUC,"2 mg, 2 mg QD, Day 10, read-out: AUCover dosing interval Geometric mean",71.9 ng·h/mL
same,AUC,"2 mg, 2 mg QD, Day 10, read-out: AUCover dosing interval Mean",76.4 ng·h/mL
same,Cmax,"2 mg, 2 mg QD, Day 10, read-out: Cmax Geometric mean",6.19 ng/mL
same,Cmax,"2 mg, 2 mg QD, Day 10, read-out: Cmax Mean",6.46 ng/mL
same,AUC0-12h,"4 mg, 4 mg BID, Day 10, read-out: AUC0-12 hours Geometric mean",194 ng·h/mL
same,AUC0-12h,"4 mg, 4 mg BID, Day 10, read-out: AUC0-12 hours Mean",237 ng·h/mL
same,AUC(0-t),"4 mg, 4 mg BID, Day 10, read-out: AUC0-24 hours Geometric mean",241 ng·h/mL
same,AUC(0-t),"4 mg, 4 mg BID, Day 10, read-out: AUC0-24 hours Mean",299 ng·h/mL
same,AUC(0-t),"4 mg, 4 mg BID, Day 10, read-out: AUC0-last non-zero Geometric mean",278 ng·h/mL
same,AUC(0-t),"4 mg, 4 mg BID, Day 10, read-out: AUC0-last non-zero Mean",355 ng·h/mL
same,AUC(0-inf),"4 mg, 4 mg BID, Day 10, read-out: AUC0-∞ Geometric mean",282 ng·h/mL
same,AUC(0-inf),"4 mg, 4 mg BID, Day 10, read-out: AUC0-∞ Mean",359 ng·h/mL
same,AUC,"4 mg, 4 mg BID, Day 10, read-out: AUCover dosing interval Geometric mean",194 ng·h/mL
same,AUC,"4 mg, 4 mg BID, Day 10, read-out: AUCover dosing interval Mean",237 ng·h/mL
same,Cmax,"4 mg, 4 mg BID, Day 10, read-out: Cmax Geometric mean",26.8 ng/mL
same,Cmax,"4 mg, 4 mg BID, Day 10, read-out: Cmax Mean",31.5 ng/mL
same,AUC0-12h,"8 mg, 8 mg BID, Day 10, read-out: AUC0-12 hours Geometric mean",418 ng·h/mL
same,AUC0-12h,"8 mg, 8 mg BID, Day 10, read-out: AUC0-12 hours Mean",458 ng·h/mL
same,AUC(0-t),"8 mg, 8 mg BID, Day 10, read-out: AUC0-24 hours Geometric mean",545 ng·h/mL
same,AUC(0-t),"8 mg, 8 mg BID, Day 10, read-out: AUC0-24 hours Mean",612 ng·h/mL
same,AUC(0-t),"8 mg, 8 mg BID, Day 10, read-out: AUC0-last non-zero Geometric mean",662 ng·h/mL
same,AUC(0-t),"8 mg, 8 mg BID, Day 10, read-out: AUC0-last non-zero Mean",745 ng·h/mL
same,AUC(0-inf),"8 mg, 8 mg BID, Day 10, read-out: AUC0-∞ Geometric mean",664 ng·h/mL
same,AUC(0-inf),"8 mg, 8 mg BID, Day 10, read-out: AUC0-∞ Mean",747 ng·h/mL
same,AUC,"8 mg, 8 mg BID, Day 10, read-out: AUCover dosing interval Geometric mean",418 ng·h/mL
same,AUC,"8 mg, 8 mg BID, Day 10, read-out: AUCover dosing interval Mean",458 ng·h/mL
same,Cmax,"8 mg, 8 mg BID, Day 10, read-out: Cmax Geometric mean",57.7 ng/mL
same,Cmax,"8 mg, 8 mg BID, Day 10, read-out: Cmax Mean",60.4 ng/mL
